Data reported in PMC6956804, “Potent antibacterial activity of MSI-1 derived from the magainin 2 peptide against drug-resistant bacteria” (Theranostics, 2020).
≈ marks a conversion by molar mass, not a printed value. Peptide text beside a SMILES is read from it.

Assays:
MRSA M101 = assay: microbe, parasite or virus in culture; format: cell-based, Staphylococcus aureus; settings: MRSA M101, clinical strain
Procedure: (§1) Bacterial strains were purchased from the American Type Culture Collection (ATCC). All clinical strains were isolated from human clinical specimens by the Medical Laboratory Center of Zhongda Hospital (Nanjing, Jiangsu, China). Ndm-1, tem-1, ctx-m-1, shv-1 -carrying bacteria were constructed as previously described. The recombinant bacteria carrying drug-resistant genes were prepared in LB nutrient and induced by IPTG (1 mM) for 4 h before text. Other bacterial strains were respectively prepared in MHB and Columbia Blood Agar Base.
(§2) A standard micro-broth serial dilution assay was used to measure MIC of peptides. MIC was obtained by a microplate reader at 600 nm. MBC was determined as previously described.

MSSA D1 = assay: microbe, parasite or virus in culture; format: cell-based, Staphylococcus aureus; settings: MSSA D1, clinical strain
Procedure: as §1, §2

MSSA D4 = assay: microbe, parasite or virus in culture; format: cell-based, Staphylococcus aureus; settings: MSSA D4, clinical strain
Procedure: as §1, §2

MRSA M108 = assay: microbe, parasite or virus in culture; format: cell-based, Staphylococcus aureus; settings: MRSA M108, clinical strain
Procedure: as §1, §2

G- and G+ bacteria = assay: Antimicrobial activity, summary over the strains; format: cell-based; settings: both G- and G+ bacteria, summary of Table 1
Procedure: as §2

PISP F34 = assay: microbe, parasite or virus in culture; format: cell-based, Streptococcus pneumoniae; settings: PISP F34, clinical strain
Procedure: as §1, §2

PISP F22 = assay: microbe, parasite or virus in culture; format: cell-based, Streptococcus pneumoniae; settings: PISP F22, clinical strain
Procedure: as §1, §2

PRSP P105 = assay: microbe, parasite or virus in culture; format: cell-based, Streptococcus pneumoniae; settings: PRSP P105, clinical strain
Procedure: as §1, §2

PRSP P112 = assay: microbe, parasite or virus in culture; format: cell-based, Streptococcus pneumoniae; settings: PRSP P112, clinical strain
Procedure: as §1, §2

[1] = tested on: K. peneumoniae B9 (ESBLs (+)); assay: organism not typed; format: cell-based; settings: K. peneumoniae B9 (ESBLs (+)), clinical strain
Procedure: as §1, §2

K. peneumoniae ATCC4352 = assay: organism not typed; format: cell-based
Procedure: as §1, §2

[2] = tested on: K. peneumoniae B6 (ESBLs (+)); assay: organism not typed; format: cell-based; settings: K. peneumoniae B6 (ESBLs (+)), clinical strain
Procedure: as §1, §2

[3] = tested on: K. peneumoniae B4 (ESBLs (+)); assay: organism not typed; format: cell-based; settings: K. peneumoniae B4 (ESBLs (+)), clinical strain
Procedure: as §1, §2

MSSE E8 = assay: microbe, parasite or virus in culture; format: cell-based, Staphylococcus epidermidis; settings: MSSE E8, clinical strain
Procedure: as §1, §2

MRSE N104 = assay: microbe, parasite or virus in culture; format: cell-based, Staphylococcus epidermidis; settings: MRSE N104, clinical strain
Procedure: as §1, §2

MSSE E3 = assay: microbe, parasite or virus in culture; format: cell-based, Staphylococcus epidermidis; settings: MSSE E3, clinical strain
Procedure: as §1, §2

MRSE N109 = assay: microbe, parasite or virus in culture; format: cell-based, Staphylococcus epidermidis; settings: MRSE N109, clinical strain
Procedure: as §1, §2

E. cloacae S3 (AmpC (+)) = assay: microbe, parasite or virus in culture; format: cell-based; settings: E. cloacae S3 (AmpC (+)), clinical strain
Procedure: as §1, §2

E. faecalis = assay: microbe, parasite or virus in culture; format: cell-based
Procedure: as §1, §2

P. aeruginosa ATCC27853 = assay: microbe, parasite or virus in culture; format: cell-based
Procedure: as §1, §2

[4] = tested on: P. aeruginosa T1 (ESBLs (+)); assay: microbe, parasite or virus in culture; format: cell-based; settings: P. aeruginosa T1 (ESBLs (+)), clinical strain
Procedure: as §1, §2

E. coli A2 (ESBLs (+)) = assay: microbe, parasite or virus in culture; format: cell-based; settings: E. coli A2 (ESBLs (+)), clinical strain
Procedure: as §1, §2

[5] = tested on: P. aeruginosa T6 (ESBLs (+)); assay: microbe, parasite or virus in culture; format: cell-based; settings: P. aeruginosa T6 (ESBLs (+)), clinical strain
Procedure: as §1, §2

E. faecium = assay: microbe, parasite or virus in culture; format: cell-based
Procedure: as §1, §2

[6] = tested on: P. aeruginosa T8 (ESBLs (+)); assay: microbe, parasite or virus in culture; format: cell-based; settings: P. aeruginosa T8 (ESBLs (+)), clinical strain
Procedure: as §1, §2

E. coli ATCC25922 = assay: microbe, parasite or virus in culture; format: cell-based; settings: micro-broth serial dilution, 600 nm
Procedure: as §1, §2

S. pneumoniae ATCC 49619 = assay: microbe, parasite or virus in culture; format: cell-based
Procedure: as §1, §2

Shigella flexneri = assay: microbe, parasite or virus in culture; format: cell-based
Procedure: as §1, §2

E. coli A5 (ESBLs (+)) = assay: microbe, parasite or virus in culture; format: cell-based; settings: E. coli A5 (ESBLs (+)), clinical strain
Procedure: as §1, §2

E. coli A9 (ESBLs (+)) = assay: microbe, parasite or virus in culture; format: cell-based; settings: E. coli A9 (ESBLs (+)), clinical strain
Procedure: as §1, §2

S. epidermidis ATCC35984 = assay: microbe, parasite or virus in culture; format: cell-based
Procedure: as §1, §2

E. cloacae S1 (AmpC (+)) = assay: microbe, parasite or virus in culture; format: cell-based; settings: E. cloacae S1 (AmpC (+)), clinical strain
Procedure: as §1, §2

S. aureus ATCC25923 = assay: microbe, parasite or virus in culture; format: cell-based
Procedure: as §1, §2

Compound | MIC (MRSA M101) | MIC (MSSA D1) | MIC (MSSA D4) | MIC (MRSA M108) | MIC (PISP F34) | MIC (PISP F22) | MIC (PRSP P105) | MIC (PRSP P112) | MIC [1] | MIC (K. peneumoniae ATCC4352) | MIC [2] | MIC [3] | MIC (MSSE E8) | MIC (MRSE N104) | MIC (MSSE E3) | MIC (MRSE N109) | MIC (E. cloacae S3 (AmpC (+))) | MIC (E. faecalis) | MIC (P. aeruginosa ATCC27853) | MIC [4] | also measured
CC[C@H](C)[C@H](NC(=O)[C@@H](N)Cc1c[nH]c2ccccc12)C(=O)N[C@@H](CCCNC(=N)N)C(=O)N[C@@H](CCCCN)C(=O)N[C@@H](Cc1ccccc1)C(=O)N[C@@H](CC(C)C)C(=O)N[C@@H](CCCCN)C(=O)N[C@@H](CCCNC(=N)N)C(=O)N[C@H](C(=O)N[C@@H](CCCCN)C(=O)N[C@@H](CCCCN)C(=O)N[C@@H](Cc1ccccc1)C(=O)NCC(N)=O)C(C)C [MSI-4] (H-WIRKFLKRVKKFG-NH2) | 32 µg/mL (≈ 18.8 µM) | 32 µg/mL (≈ 18.8 µM) | 16 µg/mL (≈ 9.38 µM) | 64 µg/mL (≈ 37.5 µM) | 16 µg/mL (≈ 9.38 µM) | 32 µg/mL (≈ 18.8 µM) | 64 µg/mL (≈ 37.5 µM) | 32 µg/mL (≈ 18.8 µM) | 16 µg/mL (≈ 9.38 µM) | 32 µg/mL (≈ 18.8 µM) | 32 µg/mL (≈ 18.8 µM) | 64 µg/mL (≈ 37.5 µM) | 16 µg/mL (≈ 9.38 µM) | 32 µg/mL (≈ 18.8 µM) | 16 µg/mL (≈ 9.38 µM) | 32 µg/mL (≈ 18.8 µM) | 32 µg/mL (≈ 18.8 µM) | 32 µg/mL (≈ 18.8 µM) | 32 µg/mL (≈ 18.8 µM) | 16 µg/mL (≈ 9.38 µM) | MIC (range over strains) (G- and G+ bacteria): 16 to 64 µg/mL; MIC (E. coli A2 (ESBLs (+))): 32 µg/mL (≈ 18.8 µM); MIC [5]: 32 µg/mL (≈ 18.8 µM); MIC (E. faecium): 16 µg/mL (≈ 9.38 µM); MIC [6]: 64 µg/mL (≈ 37.5 µM); MIC (E. coli ATCC25922): 16 µg/mL (≈ 9.38 µM); MIC (S. pneumoniae ATCC 49619): 16 µg/mL (≈ 9.38 µM); MIC (Shigella flexneri): 16 µg/mL (≈ 9.38 µM); MIC (E. coli A5 (ESBLs (+))): 16 µg/mL (≈ 9.38 µM); MIC (E. coli A9 (ESBLs (+))): 32 µg/mL (≈ 18.8 µM); MIC (S. epidermidis ATCC35984): 16 µg/mL (≈ 9.38 µM); MIC (E. cloacae S1 (AmpC (+))): 16 µg/mL (≈ 9.38 µM); MIC (S. aureus ATCC25923): 16 µg/mL (≈ 9.38 µM)
CC[C@H](C)[C@H](NC(=O)CN)C(=O)NCC(=O)N[C@@H](CCCCN)C(=O)N[C@@H](Cc1ccccc1)C(=O)N[C@@H](CC(C)C)C(=O)N[C@@H](CCCCN)C(=O)N[C@@H](CCCCN)C(=O)N[C@@H](C)C(=O)N[C@@H](CCCCN)C(=O)N[C@@H](CCCCN)C(=O)N[C@@H](Cc1ccccc1)C(=O)NCC(=O)N[C@@H](CCCCN)C(=O)N[C@@H](C)C(=O)N[C@@H](Cc1ccccc1)C(=O)N[C@H](C(=O)N[C@@H](CCCCN)C(=O)N[C@H](C(=O)N[C@@H](CC(C)C)C(=O)N[C@@H](CCCCN)C(=O)N[C@@H](CCCCN)C(N)=O)[C@@H](C)CC)C(C)C [MSI-78, pexiganan] (H-GIGKFLKKAKKFGKAFVKILKK-NH2) | 32 µg/mL (≈ 12.9 µM) | 16 µg/mL (≈ 6.46 µM) | 32 µg/mL (≈ 12.9 µM) | 16 µg/mL (≈ 6.46 µM) | 32 µg/mL (≈ 12.9 µM) | 16 µg/mL (≈ 6.46 µM) | 16 µg/mL (≈ 6.46 µM) | 32 µg/mL (≈ 12.9 µM) | 32 µg/mL (≈ 12.9 µM) | 8 µg/mL (≈ 3.23 µM) | 16 µg/mL (≈ 6.46 µM) | 16 µg/mL (≈ 6.46 µM) | 16 µg/mL (≈ 6.46 µM) | 32 µg/mL (≈ 12.9 µM) | 32 µg/mL (≈ 12.9 µM) | 16 µg/mL (≈ 6.46 µM) | 16 µg/mL (≈ 6.46 µM) | 16 µg/mL (≈ 6.46 µM) | 16 µg/mL (≈ 6.46 µM) | 32 µg/mL (≈ 12.9 µM) | MIC (E. coli A2 (ESBLs (+))): 8 µg/mL (≈ 3.23 µM); MIC [5]: 16 µg/mL (≈ 6.46 µM); MIC (E. faecium): 8 µg/mL (≈ 3.23 µM); MIC [6]: 16 µg/mL (≈ 6.46 µM); MIC (E. coli ATCC25922): 16 µg/mL (≈ 6.46 µM); MIC (S. pneumoniae ATCC 49619): 16 µg/mL (≈ 6.46 µM); MIC (Shigella flexneri): 32 µg/mL (≈ 12.9 µM); MIC (E. coli A5 (ESBLs (+))): 16 µg/mL (≈ 6.46 µM); MIC (E. coli A9 (ESBLs (+))): 16 µg/mL (≈ 6.46 µM); MIC (S. epidermidis ATCC35984): 16 µg/mL (≈ 6.46 µM); MIC (E. cloacae S1 (AmpC (+))): 16 µg/mL (≈ 6.46 µM); MIC (S. aureus ATCC25923): 16 µg/mL (≈ 6.46 µM)
